Data on six molecules can be found in paper PMC7902834, “A rotary mechanism for allostery in bacterial hybrid malic enzymes” (Nature Communications, 2021).

Structures are written as SMILES.

Type in all cases: biochemical
The target in assay [1] is T1, MaeB (hybrid malic enzyme, Bd1833/MaeB) (Bdellovibrio bacteriovorus, UniProt Q6MM14+Q6MM15). Kind of assay: steady-state kinetics, NADPH absorbance. The arrangement: gene mdh; full-length MaeB (Met1–Lys780).
Target sequence in this assay (Q6MM15 entry or part of it): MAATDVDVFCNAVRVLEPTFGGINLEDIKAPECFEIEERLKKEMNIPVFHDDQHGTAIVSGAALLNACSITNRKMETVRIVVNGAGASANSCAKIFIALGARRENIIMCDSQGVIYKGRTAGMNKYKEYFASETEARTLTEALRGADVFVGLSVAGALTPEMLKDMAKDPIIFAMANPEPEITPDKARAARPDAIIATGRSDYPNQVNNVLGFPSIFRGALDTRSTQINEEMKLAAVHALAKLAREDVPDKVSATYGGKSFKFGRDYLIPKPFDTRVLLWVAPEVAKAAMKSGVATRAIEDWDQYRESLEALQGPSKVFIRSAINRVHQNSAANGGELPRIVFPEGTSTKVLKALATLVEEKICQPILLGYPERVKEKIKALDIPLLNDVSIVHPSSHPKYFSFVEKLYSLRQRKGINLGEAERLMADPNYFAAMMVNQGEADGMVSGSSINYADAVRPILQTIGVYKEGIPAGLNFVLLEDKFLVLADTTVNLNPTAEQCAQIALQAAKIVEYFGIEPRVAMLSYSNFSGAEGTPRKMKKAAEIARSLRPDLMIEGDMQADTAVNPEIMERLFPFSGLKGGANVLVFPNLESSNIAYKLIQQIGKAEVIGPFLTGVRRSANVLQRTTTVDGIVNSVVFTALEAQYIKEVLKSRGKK
Target sequence in this assay (Q6MM14 entry or part of it): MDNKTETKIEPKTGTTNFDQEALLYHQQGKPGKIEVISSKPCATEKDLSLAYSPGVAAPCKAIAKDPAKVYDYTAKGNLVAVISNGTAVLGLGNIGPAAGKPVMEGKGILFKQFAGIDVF
In assay [2] the target is T1, MaeB (hybrid malic enzyme, Bd1833/MaeB). Nature of the assay: NADPH absorbance assay ([…] nm), single concentration […] ([…] activity left). On the set-up: gene mdh; full-length MaeB and MaeBME (Met1–Ala434).
Target sequence in this assay (Q6MM14 entry or part of it): as above
Target sequence in this assay (Q6MM15 entry or part of it): as the sequence (Q6MM15 entry or part of it) above
Assay [3] deals with T2, MaeB (hybrid malic enzyme, Bd1833/MaeB) (Bdellovibrio bacteriovorus, UniProt Q6MM15). Kind of assay: NADPH absorbance assay ([…] nm), dose response. On the set-up: gene mdh; full-length MaeB (Met1–Lys780), ligand-free MaeBapo.
Assay [4] deals with T1, MaeB (hybrid malic enzyme, Bd1833/MaeB). Nature of the assay: NADPH absorbance assay ([…] nm), single concentration […]. On the set-up: gene mdh; full-length MaeB (Met1–Lys780). Conditions: read-out: % of uninhibited activity at 2 mM.
Target sequence in this assay (Q6MM15 entry or part of it): as above
Target sequence in this assay (Q6MM14 entry or part of it): as the sequence (Q6MM14 entry or part of it) above
The target in assay [5] is T2, MaeB (hybrid malic enzyme, Bd1833/MaeB). Kind of assay: X-ray crystal structures of PTA domain and full-length; HPLC of co-purified ligand; enzyme inhibition kinetics (IC50 […]). On the set-up: gene mdh; full-length MaeB (Met1–Lys780) kinetics and crystal structure (6ZNG).
Assay [6] deals with T1, MaeB (hybrid malic enzyme, Bd1833/MaeB). Kind of assay: steady-state kinetics of reverse reductive carboxylation. On the set-up: gene mdh; full-length MaeB (Met1–Lys780).
Target sequence in this assay (Q6MM15 entry or part of it): as the sequence (Q6MM15 entry or part of it) above
Target sequence in this assay (Q6MM14 entry or part of it): as the sequence (Q6MM14 entry or part of it) above

T2 sequence (Q6MM14 entry or part of it): as above
T2 sequence (Q6MM15 entry or part of it): as the sequence (Q6MM15 entry or part of it) above

Regarding `O=C(O)C[C@H](O)C(=O)O` [L-malate], the “steady-state kinetics, NADPH absorbance” value in assay [1] was determined as 10000 M⁻¹ s⁻¹.

Turning to `O=C(O)CC(=O)C(=O)O` [oxaloacetate], in assay [2], the “NADPH absorbance assay (340 nm), single concentration 2 mM (<10% activity left)” value was “oxaloacetate inhibited both MaeB and MaeBME activities, suggesting this effector interacts directly with the ME domain”.

As usually defined, the IC50 is the concentration needed to halve the response being measured. Read a low IC50 as greater potency in that assay. `CC(C)(COP(=O)(O)OP(=O)(O)OC[C@H]1O[C@@H](n2cnc3c(N)ncnc32)[C@H](O)[C@@H]1OP(=O)(O)O)[C@@H](O)C(=O)NCCC(=O)NCCS` [CoA] showed an IC50 in assay [3] of 20.2 µM.

In the case of `CC(=O)OP(=O)(O)O` [acetyl phosphate], the activity at 2000 µM in assay [4] is approximately 50%.

Usually Ki stands for a dissociation constant, usually derived from enzyme kinetics or from competition with a known ligand. A low value points to higher affinity. In turn, `CC(=O)SCCNC(=O)CCNC(=O)[C@H](O)C(C)(C)COP(=O)(O)OP(=O)(O)OC[C@H]1O[C@@H](n2cnc3c(N)ncnc32)[C@H](O)[C@@H]1OP(=O)(O)O` [acetyl-CoA] displayed a Ki in assay [5] of 0.7 µM.

Turning to `CC(=O)C(=O)O` [pyruvate], in assay [6], the “steady-state kinetics of reverse reductive carboxylation” value came to 30 M⁻¹ s⁻¹.
